In paper PMC2804746 (Biochemistry, 2008):

What was measured:
taTrxR (Ta0984) = molecular target: T1, taTrxR (Ta0984) (Thermoplasma acidophilum, UniProt Q9HJI4); experiment: X-ray crystal structure, […] Å; format: binding; conditions: one FAD per monomer, co-purified; crystals at pH 5.5, room temperature
T1 sequence (Q9HJI4 1-319): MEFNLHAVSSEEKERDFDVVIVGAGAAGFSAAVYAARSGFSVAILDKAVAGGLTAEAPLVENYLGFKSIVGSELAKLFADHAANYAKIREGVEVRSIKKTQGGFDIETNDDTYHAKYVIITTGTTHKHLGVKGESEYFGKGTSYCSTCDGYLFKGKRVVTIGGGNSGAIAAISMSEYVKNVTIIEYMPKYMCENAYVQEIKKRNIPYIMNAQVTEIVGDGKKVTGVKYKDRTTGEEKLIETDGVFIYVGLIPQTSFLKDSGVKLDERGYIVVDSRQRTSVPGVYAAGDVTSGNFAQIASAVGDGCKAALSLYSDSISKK

ecTrxR = ecTrxR (Escherichia coli, UniProt P0A9P4); experiment: anaerobic titration, reduction of bound FAD by visible spectra; format: biochemical; conditions: 50 mM TRIS, pH 7.5, 150 mM NaCl, 25 °C
Chain of ecTrxR (P0A9P4 2-321): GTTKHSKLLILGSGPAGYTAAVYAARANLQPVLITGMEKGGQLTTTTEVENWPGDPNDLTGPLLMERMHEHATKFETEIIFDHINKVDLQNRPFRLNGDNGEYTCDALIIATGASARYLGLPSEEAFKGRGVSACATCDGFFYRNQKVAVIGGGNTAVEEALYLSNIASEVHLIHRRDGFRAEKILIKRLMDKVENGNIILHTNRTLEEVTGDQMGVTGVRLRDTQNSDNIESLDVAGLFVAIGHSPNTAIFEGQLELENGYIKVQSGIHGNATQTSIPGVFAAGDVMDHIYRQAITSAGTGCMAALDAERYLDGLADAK

Compound	X-ray crystal structure, 2.35 Å; visible absorption spectrum (taTrxR (Ta0984))	anaerobic titration, reduction of bound FAD by visible spectra (ecTrxR)
Cc1cc2nc3c(=O)[nH]c(=O)nc-3n(C[C@H](O)[C@H](O)[C@H](O)COP(=O)(O)OP(=O)(O)OC[C@H]3O[C@@H](n4cnc5c(N)ncnc54)[C@H](O)[C@@H]3O)c2cc1C [FAD]	The taTrxR structure has one FAD molecule bound in a similar conformation as the ecTrxR structure	
NC(=O)C1=CN([C@@H]2O[C@H](COP(=O)(O)OP(=O)(O)OC[C@H]3O[C@@H](n4cnc5c(N)ncnc54)[C@H](O)[C@@H]3O)[C@@H](O)[C@H]2O)C=CC1 [NADH]		NADH does reduce the flavin to some extent in this protein
NC(=O)C1=CN([C@@H]2O[C@H](COP(=O)(O)OP(=O)(O)OC[C@H]3O[C@@H](n4cnc5c(N)ncnc54)[C@H](OP(=O)(O)O)[C@@H]3O)[C@@H](O)[C@H]2O)C=CC1 [NADPH]		titration of ecTrxR with NADPH results in a rapid reduction of the bound FAD
